Measurements reported in US12428427B2, “Methods and compositions for targeting PD-L1” (Aligos Therapeutics, Inc., priority 2021, dated 2025).

Legend:
PDL1/PD1 = PDL1/PD1 (Homo sapiens, UniProt Q9NZQ7); experiment: PDL1/PD1 Binding Assay; conditions: PDL1-6×His 0.3 nM, PD1-Fc-Avi-Biotin 2.5 nM, Acceptor/Donor beads; read-out: PD-1/PD-L1 PPI IC50
Description: Compounds to be tested were serially diluted in DMSO, and further diluted in assay buffer (25 mM Hepes pH 7.4, 150 mM NaCl, 0.005% Tween 20, BSA 0.01%). Diluted compounds were added to the wells with final concentration of DMSO at 1%. PDL1-6×His protein was added to the wells, mixed well with compound. The plates were incubated for 30 min at room temperature. PD1-Fc-Avi-Biotin protein was added to the wells. Final concentration of PDL1 and PD1 protein is 0.3 nM and 2.5 nM, respectively. After a binding time of 30 min at room temperature, Anti-6×His Acceptor beads (final concentration 20 ug/ml) were added to the wells, and the incubation continued for 1 h. Streptavidin Donor beads (final concentration 20 ug/mL) were added at reduced light. The plates were sealed with foil and incubated in the dark for additional 1 h or overnight before reading on an Envision reader. The IC50 values were determined by fitting the curves using a four-parameter equation in Graphpad Prism 8.

PD-1/PD-L1 interaction = biological target: T1, PD-1/PD-L1 interaction (Homo sapiens, UniProt Q9NZQ7); experiment: PD-1/PD-L1 NFAT Reporter Assay; type: cell-based; conditions: co-culture of PD-L1 expressing CHO cells and PD-1 overexpressing Jurkat cells, 6 hrs, NFAT luciferase
T1 construct: expressed in transfected cells; Jurkat cells (PD-1 plus NFAT-luciferase)
Description: Blocking the PD-1/PD-L1 interaction will release the inhibitory signal and results in TCR signaling and NFAT-mediated luciferase activity.
CHO cells expressing surface-bound anti-CD3 antibodies and PD-L1 were first seeded overnight and treated with the compounds. Jurkat cells overexpressing PD-1 and a luciferase construct under NFAT promoter were then immediately seeded on the monolayer of CHO cells. The co-culture was then incubated for 6 hrs at 37° C. Luciferase activity was assessed by adding the ONE-Glo reagent and measuring luminescence with a plate reader. EC50 values were determined from the fit of the dose-response curves.

T1 sequence (Q9NZQ7 19-290): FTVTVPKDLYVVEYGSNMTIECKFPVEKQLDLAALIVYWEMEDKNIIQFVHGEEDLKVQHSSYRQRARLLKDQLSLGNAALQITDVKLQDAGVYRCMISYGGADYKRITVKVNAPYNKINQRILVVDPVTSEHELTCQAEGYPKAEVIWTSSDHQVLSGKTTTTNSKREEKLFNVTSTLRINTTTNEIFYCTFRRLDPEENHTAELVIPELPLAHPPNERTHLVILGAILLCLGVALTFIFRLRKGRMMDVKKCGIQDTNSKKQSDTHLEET
Chain of PDL1/PD1 (Q9NZQ7 19-238 limits assumed): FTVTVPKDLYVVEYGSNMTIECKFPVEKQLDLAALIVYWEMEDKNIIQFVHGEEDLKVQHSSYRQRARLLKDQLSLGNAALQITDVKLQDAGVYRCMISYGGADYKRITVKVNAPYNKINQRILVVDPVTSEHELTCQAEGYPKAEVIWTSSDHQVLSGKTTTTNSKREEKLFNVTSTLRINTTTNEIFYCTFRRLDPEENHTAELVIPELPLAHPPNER

Row | SMILES | IC50 (PDL1/PD1) | EC50 (PD-1/PD-L1 interaction)
1 | COc1nc(-c2cccc(-c3cccc(NC(=O)c4ccnn(C)c4=O)c3C)c2Cl)ccc1CN1CC(O)C1 [Compound C-66] | ≤ 0.01 µM | 0.01 to 0.1 µM
2 | COc1nc(-c2cccc(-c3cccc(NC(=O)c4ccnn(C)c4=O)c3Cl)c2Cl)ccc1CN1CCN(C(=O)OC(C)(C)C)[C@H](C(=O)O)C1 [Compound C-23] | ≤ 0.01 µM | > 5 µM
3 | COc1nc(-c2cccc(-c3cccc(NC(=O)c4ccn[nH]c4=O)c3Cl)c2Cl)cnc1CN1CC2(CCC(=O)N2)C1 [Compound A-2] | ≤ 0.01 µM | 0.01 to 0.1 µM
4 | COc1nc(-c2cccc(-c3cccc(NC(=O)c4ccnn(C)c4=O)c3C)c2Cl)ccc1CN1CC[C@H](O)C1 [Compound C-65] | ≤ 0.01 µM | ≤ 0.01 µM

Continued, values first:

Row | IC50 (PDL1/PD1) | EC50 (PD-1/PD-L1 interaction) | SMILES
5 | ≤ 0.01 µM | 0.01 to 0.1 µM | COc1nc(-c2cccc(-c3cccc(NC(=O)c4ccnn(C)c4=O)c3Cl)c2Cl)ccc1CN1CC(F)(C(=O)O)C1 [Compound C-19]
6 | ≤ 0.01 µM | 0.01 to 0.1 µM | COc1nc(-c2cccc(-c3cccc(NC(=O)c4ccnn(C)c4=O)c3Cl)c2Cl)ccc1CN[C@](C)(CO)C(=O)O [Compound C-12]
7 | ≤ 0.01 µM | 0.1 to 1 µM | COc1nc(-c2cccc(-c3cccc(NC(=O)c4ccnn(C)c4=O)c3Cl)c2Cl)ccc1CN1CCCC[C@H]1C(=O)O [Compound C-10]
8 | ≤ 0.01 µM | > 5 µM | COc1nc(-c2cccc(-c3cccc(NC(=O)c4ccnn(C)c4=O)c3C)c2C)ccc1CNC(C)(C)CO [Compound C-73]
